# Experimental data reported in ChEMBL document CHEMBL1126120, “Synthesis and biological evaluation of dihydroeptastatin, a novel inhibitor of 3-hydroxy-3-methylglutaryl coenzyme A reductase” (J Med Chem, 1992).
# pIC50: −log10 of the molar value.
# Columns and labels:
# [1] = molecular target: T1, 3-hydroxy-3-methylglutaryl-coenzyme A reductase (Homo sapiens, UniProt P04035); assay: Concentration required to inhibit HMG-CoA reductase by 50% was determined in Hep G2 cell line; type: functional, cell-based, HepG2
# T1 sequence (P04035 whole entry): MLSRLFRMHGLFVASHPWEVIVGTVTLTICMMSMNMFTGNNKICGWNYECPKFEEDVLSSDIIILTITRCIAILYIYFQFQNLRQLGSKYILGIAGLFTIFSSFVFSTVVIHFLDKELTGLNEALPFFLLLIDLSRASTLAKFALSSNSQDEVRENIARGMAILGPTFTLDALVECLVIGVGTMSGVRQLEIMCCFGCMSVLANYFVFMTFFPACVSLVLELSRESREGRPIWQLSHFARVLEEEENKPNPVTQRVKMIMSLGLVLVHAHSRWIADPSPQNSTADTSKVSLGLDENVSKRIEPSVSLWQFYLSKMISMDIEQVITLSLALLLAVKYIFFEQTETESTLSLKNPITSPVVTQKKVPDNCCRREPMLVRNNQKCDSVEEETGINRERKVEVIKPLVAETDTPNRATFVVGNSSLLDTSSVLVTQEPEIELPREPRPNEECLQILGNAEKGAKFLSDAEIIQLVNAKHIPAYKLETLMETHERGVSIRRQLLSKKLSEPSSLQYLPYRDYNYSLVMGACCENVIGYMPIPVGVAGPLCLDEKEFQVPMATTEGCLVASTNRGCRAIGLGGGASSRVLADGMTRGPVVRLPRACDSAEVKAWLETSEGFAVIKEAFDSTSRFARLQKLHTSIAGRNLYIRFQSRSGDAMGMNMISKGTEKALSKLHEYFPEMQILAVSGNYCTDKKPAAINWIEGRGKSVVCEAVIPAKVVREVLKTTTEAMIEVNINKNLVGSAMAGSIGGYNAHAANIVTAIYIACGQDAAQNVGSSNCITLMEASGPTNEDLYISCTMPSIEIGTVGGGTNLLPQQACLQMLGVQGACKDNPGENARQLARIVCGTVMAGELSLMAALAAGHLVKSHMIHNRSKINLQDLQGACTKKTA
# HES = assay: Concentration required to inhibit HMG-CoA reductase by 50% was determined in HES 9 cell line; type: functional, cell-based; details: Homo sapiens
# [2] = molecular target: T2, 3-hydroxy-3-methylglutaryl-coenzyme A reductase (Rattus norvegicus, UniProt P51639); assay: Inhibitory activity against HMG-CoA reductase from rat liver microsomal preparation
# T2 sequence (P51639 whole entry): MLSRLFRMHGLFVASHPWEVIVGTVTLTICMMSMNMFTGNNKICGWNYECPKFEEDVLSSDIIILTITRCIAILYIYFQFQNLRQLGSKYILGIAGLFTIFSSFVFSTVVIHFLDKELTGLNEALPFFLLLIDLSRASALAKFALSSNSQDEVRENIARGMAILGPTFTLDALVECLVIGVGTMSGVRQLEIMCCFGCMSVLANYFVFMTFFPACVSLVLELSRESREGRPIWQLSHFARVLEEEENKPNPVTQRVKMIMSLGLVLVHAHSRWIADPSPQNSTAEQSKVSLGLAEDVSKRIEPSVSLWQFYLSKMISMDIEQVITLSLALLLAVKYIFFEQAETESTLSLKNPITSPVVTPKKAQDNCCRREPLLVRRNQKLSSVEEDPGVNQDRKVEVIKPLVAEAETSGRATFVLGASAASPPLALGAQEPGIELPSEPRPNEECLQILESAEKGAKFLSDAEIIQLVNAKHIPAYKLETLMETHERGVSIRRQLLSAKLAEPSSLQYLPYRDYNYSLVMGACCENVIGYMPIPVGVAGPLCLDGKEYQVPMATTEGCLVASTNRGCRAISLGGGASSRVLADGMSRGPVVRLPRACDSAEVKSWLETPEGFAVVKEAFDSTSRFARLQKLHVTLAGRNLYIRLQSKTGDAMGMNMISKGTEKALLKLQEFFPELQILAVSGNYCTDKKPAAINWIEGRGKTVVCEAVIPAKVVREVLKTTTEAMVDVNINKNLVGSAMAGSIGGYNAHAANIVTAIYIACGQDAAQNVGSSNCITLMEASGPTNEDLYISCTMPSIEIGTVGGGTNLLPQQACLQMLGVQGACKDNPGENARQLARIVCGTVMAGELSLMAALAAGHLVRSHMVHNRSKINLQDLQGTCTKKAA
Structure (SMILES),pIC50 [1],pIC50 (HES),pIC50 [2]
CC[C@H](C)C(=O)O[C@H]1C[C@H](O)C[C@@H]2C=C[C@H](C)[C@H](CCC3C[C@@H](O)CC(=O)O3)[C@@H]12 (stereo not given in full),5.85,5.15,–
CC[C@H](C)C(=O)O[C@H]1C[C@H](O)C[C@@H]2C=C[C@H](C)[C@H](CC[C@H](O)C[C@H](O)CC(=O)O)[C@@H]12,5.65,5.14,7.85

# The next compounds have a higher pIC50 (HES) than those just listed; values first:
pIC50 [1],pIC50 (HES),pIC50 [2],Structure (SMILES)
7.54,7.77,–,CC[C@H](C)C(=O)O[C@H]1C[C@@H](C)C=C2C=C[C@H](C)[C@H](CC[C@@H](O)C[C@@H](O)CC(=O)O)[C@H]21
–,7.89,–,CC[C@H](C)C(=O)O[C@H]1C[C@@H](C)C=C2C=C[C@H](C)[C@H](CC[C@@H]3C[C@@H](O)CC(=O)O3)[C@H]21 [LOVASTATIN]
7.92,8.19,–,CCC(C)(C)C(=O)O[C@H]1C[C@@H](C)C=C2C=C[C@H](C)[C@H](CC[C@@H](O)C[C@@H](O)CC(=O)O)[C@H]21
